In ChEMBL document CHEMBL5113488, “Design, synthesis and antitumor activity study of a gemcitabine prodrug conjugated with a HDAC6 inhibitor” (Bioorg Med Chem Lett, 2022):
Calls of active or inactive are those of the source. The rule behind the calls is not given here.

What was measured:
[1] = biological target: T1, Cytochrome P450 3A2 (Rattus norvegicus, UniProt P05183); experiment: Inhibition of CYP3A2-mediated metabolite formation in rat liver microsomes assessed as reduction in N-(1-((2R,4R,5R)-3,3-difluoro-4-hydroxy-5-(hydroxymethyl)tetrahydrofuran-2-yl)-2-oxo-1,2-dihydropyrimidin-4-yl)pentadecanamide metabolism; format: ADME, Microsome
T1 sequence (P05183 whole entry): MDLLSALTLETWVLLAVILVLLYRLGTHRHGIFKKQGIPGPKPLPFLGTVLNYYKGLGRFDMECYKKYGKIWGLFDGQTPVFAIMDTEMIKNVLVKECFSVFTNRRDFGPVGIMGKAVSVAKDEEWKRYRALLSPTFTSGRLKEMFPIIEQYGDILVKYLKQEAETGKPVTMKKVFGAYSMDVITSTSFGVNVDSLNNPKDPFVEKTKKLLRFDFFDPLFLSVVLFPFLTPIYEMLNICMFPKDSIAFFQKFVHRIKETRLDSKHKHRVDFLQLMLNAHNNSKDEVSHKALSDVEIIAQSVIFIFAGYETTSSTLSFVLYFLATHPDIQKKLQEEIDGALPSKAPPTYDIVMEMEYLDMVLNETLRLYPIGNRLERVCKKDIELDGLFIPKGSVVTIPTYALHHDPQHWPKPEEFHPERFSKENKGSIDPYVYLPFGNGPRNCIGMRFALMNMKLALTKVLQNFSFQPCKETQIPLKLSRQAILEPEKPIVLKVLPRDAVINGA

[2] = tested on: MDA-MB-231; experiment: Antiproliferative activity against human MDA-MB-231 cells assessed as inhibition of cell growth incubated in presence of 10 uM imatinib; format: functional, cell-based
[3] = tested on: HeLa; experiment: Antiproliferative activity against human HeLa cells assessed as inhibition of cell growth; format: functional, cell-based
[4] = tested on: PANC-1; experiment: Antiproliferative activity against human PANC-1 cells assessed as inhibition of cell growth; format: functional, cell-based
[5] = tested on: SK-OV-3; experiment: Antiproliferative activity against human SK-OV-3 cells assessed as inhibition of cell growth; format: functional, cell-based
[6] = tested on: MDA-MB-231; experiment: Antiproliferative activity against human MDA-MB-231 cells assessed as inhibition of cell growth; format: functional, cell-based
[7] = tested on: 4T1; experiment: Antiproliferative activity against mouse 4T1 cells assessed as inhibition of cell growth; format: functional, cell-based
[8] = tested on: Huh-7; experiment: Antiproliferative activity against human Huh-7 cells assessed as inhibition of cell growth; format: functional, cell-based
[9] = tested on: SGC-7901; experiment: Antiproliferative activity against human SGC-7901 cells assessed as inhibition of cell growth; format: functional, cell-based
[10] = tested on: MDA-MB-231; experiment: Antiproliferative activity against human MDA-MB-231 cells assessed as inhibition of cell growth pretreated with hENT1 inhibitor, dipyridamole at 10 uM followed by compound addition; format: functional, cell-based
[11] = tested on: A549; experiment: Antiproliferative activity against human A549 cells assessed as inhibition of cell growth; format: functional, cell-based
[12] = tested on: 4T1; experiment: Antitumor activity against mouse 4T1 cells implanted in mouse assessed as tumor growth inhibition at 10 mg/kg administered for 15 days relative to control; format: functional; details: 4T1, 360 h, time 15 day, read-out: TGI
[13] = tested on: HCT-116; experiment: Antiproliferative activity against human HCT-116 cells assessed as inhibition of cell growth; format: functional, cell-based
[14] = Toxicity in mouse implanted with mouse 4T1 cells assessed as pathological damage in liver at 5 to 10 mg/kg administered for 15 days by H and E staining based analysis; format: organism-based; details: 4t1, 360 h, dose 5-10 mg/kg, time 15 day
[15] = Toxicity in mouse implanted with mouse 4T1 cells assessed as body weight loss at 5 to 10 mg/kg administered for 15 days; format: organism-based; details: 4t1, 360 h, dose 5-10 mg/kg, time 15 day
[16] = Toxicity in mouse implanted with mouse 4T1 cells assessed as pathological damage in kidney at 5 to 10 mg/kg administered for 15 days by H and E staining based analysis; format: organism-based; details: 4t1, 360 h, dose 5-10 mg/kg, time 15 day
[17] = Toxicity in mouse implanted with mouse 4T1 cells assessed as pathological damage in heart at 5 to 10 mg/kg administered for 15 days by H and E staining based analysis; format: organism-based; details: 4t1, 360 h, dose 5-10 mg/kg, time 15 day
[18] = biological target: T2, Cytochrome P450 2D1 (Rattus norvegicus, UniProt P10633); experiment: Inhibition of CYP2D1 in rat liver microsomes using dextromethorphan as substrate; format: ADME, Microsome
T2 sequence (P10633 whole entry): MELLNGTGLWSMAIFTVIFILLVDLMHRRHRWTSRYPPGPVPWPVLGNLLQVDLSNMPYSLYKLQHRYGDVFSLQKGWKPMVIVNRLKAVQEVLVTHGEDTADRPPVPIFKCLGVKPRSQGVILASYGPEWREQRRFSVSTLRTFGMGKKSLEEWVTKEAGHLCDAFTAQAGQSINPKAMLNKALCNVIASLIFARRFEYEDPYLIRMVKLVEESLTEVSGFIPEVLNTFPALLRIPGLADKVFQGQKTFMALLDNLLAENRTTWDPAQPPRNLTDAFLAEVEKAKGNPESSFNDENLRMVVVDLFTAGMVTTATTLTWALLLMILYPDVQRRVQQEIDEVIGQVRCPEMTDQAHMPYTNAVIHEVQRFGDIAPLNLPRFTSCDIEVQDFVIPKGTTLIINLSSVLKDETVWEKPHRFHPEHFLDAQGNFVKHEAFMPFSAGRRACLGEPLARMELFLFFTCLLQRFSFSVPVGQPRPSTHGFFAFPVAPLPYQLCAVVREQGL

[19] = biological target: T1, Cytochrome P450 3A2; experiment: Inhibition of CYP3A2 in rat liver microsomes using midazolam as substrate; format: ADME, Microsome
[20] = tested on: 4T1; experiment: Antitumor activity against mouse 4T1 cells implanted in mouse assessed as tumor growth inhibition at 5 mg/kg administered for 15 days relative to control; format: functional; details: 4T1, 360 h, time 15 day, read-out: TGI
[21] = biological target: Cytochrome P450 2E1 (Rattus norvegicus, UniProt P05182); experiment: Inhibition of CYP2E1 in rat liver microsomes using chlorzoxazone as substrate; format: ADME, Microsome
Cytochrome P450 2E1, sequence (P05182 whole entry): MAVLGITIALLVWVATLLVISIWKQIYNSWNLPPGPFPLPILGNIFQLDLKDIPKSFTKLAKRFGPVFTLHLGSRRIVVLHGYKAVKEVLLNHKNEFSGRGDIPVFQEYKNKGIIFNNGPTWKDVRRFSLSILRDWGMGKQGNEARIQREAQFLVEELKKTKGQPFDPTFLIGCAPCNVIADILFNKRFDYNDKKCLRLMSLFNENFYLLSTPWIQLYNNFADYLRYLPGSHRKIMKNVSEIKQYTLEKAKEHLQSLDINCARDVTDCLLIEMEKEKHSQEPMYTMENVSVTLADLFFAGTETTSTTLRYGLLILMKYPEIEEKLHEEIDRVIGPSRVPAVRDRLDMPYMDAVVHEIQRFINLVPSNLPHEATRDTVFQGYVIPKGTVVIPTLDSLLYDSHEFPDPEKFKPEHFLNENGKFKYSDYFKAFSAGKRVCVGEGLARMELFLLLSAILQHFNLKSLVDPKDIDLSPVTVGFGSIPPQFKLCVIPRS

[22] = biological target: T3, Cytochrome P450 1A2 (Rattus norvegicus, UniProt P04799); experiment: Inhibition of CYP1A2 in rat liver microsomes using phenacetin as substrate; format: ADME, Microsome
T3 sequence (P04799 whole entry): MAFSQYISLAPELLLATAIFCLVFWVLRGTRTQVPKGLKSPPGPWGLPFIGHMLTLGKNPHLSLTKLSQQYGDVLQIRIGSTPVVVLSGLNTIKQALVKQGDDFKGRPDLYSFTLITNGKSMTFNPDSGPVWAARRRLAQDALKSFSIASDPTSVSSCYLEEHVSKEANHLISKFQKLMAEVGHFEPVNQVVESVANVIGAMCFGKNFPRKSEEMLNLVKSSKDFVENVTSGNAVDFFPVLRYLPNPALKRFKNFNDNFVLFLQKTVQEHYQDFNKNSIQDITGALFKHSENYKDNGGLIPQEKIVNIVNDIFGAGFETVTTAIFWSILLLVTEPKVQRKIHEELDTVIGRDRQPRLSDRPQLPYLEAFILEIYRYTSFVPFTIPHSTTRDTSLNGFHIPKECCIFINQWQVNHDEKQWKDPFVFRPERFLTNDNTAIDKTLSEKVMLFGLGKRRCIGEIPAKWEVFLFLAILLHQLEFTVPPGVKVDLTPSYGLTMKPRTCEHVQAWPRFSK

[23] = tested on: MDA-MB-231; experiment: Induction of DNA damage in human MDA-MB-231 cells assessed as increase in phospho-gamma-H2A.X expression level at 0.3 to 3 uM; format: functional, cell-based; details: dose 0.3-3 µM
[24] = biological target: T4, Cytochrome P450 2C6 (Rattus norvegicus, UniProt P05178); experiment: Inhibition of CYP2C6 in rat liver microsomes using diclofenac as substrate; format: ADME, Microsome
T4 sequence (P05178 whole entry): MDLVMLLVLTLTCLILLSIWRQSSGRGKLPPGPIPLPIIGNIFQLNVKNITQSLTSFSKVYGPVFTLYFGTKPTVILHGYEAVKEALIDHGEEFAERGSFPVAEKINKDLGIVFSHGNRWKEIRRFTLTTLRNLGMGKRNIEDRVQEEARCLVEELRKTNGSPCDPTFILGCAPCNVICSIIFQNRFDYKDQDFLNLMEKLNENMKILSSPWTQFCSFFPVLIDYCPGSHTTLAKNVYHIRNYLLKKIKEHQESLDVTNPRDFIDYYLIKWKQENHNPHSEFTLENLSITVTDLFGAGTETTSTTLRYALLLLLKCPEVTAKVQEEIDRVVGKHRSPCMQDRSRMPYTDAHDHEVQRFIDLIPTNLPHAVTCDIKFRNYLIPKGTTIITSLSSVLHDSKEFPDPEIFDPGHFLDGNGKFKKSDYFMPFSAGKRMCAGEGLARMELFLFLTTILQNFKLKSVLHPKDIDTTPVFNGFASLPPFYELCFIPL

Row | IC50 [2] | IC50 [3] | IC50 [4] | IC50 [5] | IC50 [6] | IC50 [7] | IC50 [8] | IC50 [9] | IC50 [10] | IC50 [11] | IC50 [13] | Compound | inhibition in vivo at 10 mg/kg [12] | also measured
1 |  |  |  |  |  |  |  |  |  |  |  | CC(=O)N1CCN(c2ccc(OCC3COC(Cn4ccnc4)(c4ccc(Cl)cc4Cl)O3)cc2)CC1 (stereo unspecified) [KETOCONAZOLE] |  | inhibition (INH) [1]: Active
2 | 818 nM | 1990 nM | 1340 nM | 440 nM | 2010 nM | 7170 nM | 740 nM | 9320 nM | 7210 nM | 380 nM | 3050 nM | Nc1ccn([C@@H]2O[C@H](CO)[C@@H](O)C2(F)F)c(=O)n1 [GEMCITABINE] | 58.7% | 
3 | 72 nM | 430 nM | 1080 nM | 620 nM | 140 nM | 660 nM | 120 nM | 3700 nM | 170 nM | 140 nM | 300 nM | CCCCCCCCCCCCCCC(=O)Nc1ccn([C@@H]2O[C@H](CO)[C@@H](O)C2(F)F)c(=O)n1 | 83.8% | Activity [14]: Non-Toxic; Activity [15]: Non-Toxic; Activity [16]: Non-Toxic; Activity [17]: Non-Toxic; Ki [18]: 179000 nM; Ki [19]: 52600 nM; inhibition in vivo at 5 mg/kg [20]: 73.2%; Ki [21]: 196000 nM; Ki [22]: 127000 nM; Activity [23]: Active; Ki [24]: 203000 nM
